≈ marks a conversion by molar mass, not a printed value.
Experiments:
Test in all cases: In vitro antibacterial activity, Mueller-Hinton agar dilution
Format in all cases: cell-based
[1] = test system: Staphylococcus epidermidis CMC 83-56; details: CMC8356, read-out: Minimal Inhibitory Concentration
Source text: (§1) The results of this test on representative compounds of this invention appear in Table I.

[2] = test system: Streptococcus sanguis G-9B (a); details: read-out: Minimal Inhibitory Concentration
Source text: as §1

[3] = test system: Salmonella QHC 77-3; details: QHC773, read-out: Minimal Inhibitory Concentration
Source text: as §1

[4] = test system: Enterobacter cloacae K79-16; details: K7916, read-out: Minimal Inhibitory Concentration
Source text: as §1

[5] = test system: Staphylococcus epidermidis ATCC 12228; details: ATCC12228, read-out: Minimal Inhibitory Concentration
Source text: as §1

[6] = test system: Escherichia coli ATCC 25922; details: ATCC25922, read-out: Minimal Inhibitory Concentration
Source text: as §1

[7] = test system: Staphylococcus aureus ATCC 25923; details: ATCC25923, read-out: Minimal Inhibitory Concentration
Source text: as §1

[8] = test system: Citrobacter freundii K81-28; details: K8128, read-out: Minimal Inhibitory Concentration
Source text: as §1

[9] = test system: Streptococcus mutans ATCC 27352-1; details: ATCC27352, read-out: Minimal Inhibitory Concentration
Source text: as §1

[10] = test system: Serratia Tul 78-15; details: TUL7815, read-out: Minimal Inhibitory Concentration
Source text: as §1

[11] = test system: Micrococcus lutea PC 1001; details: PC1001, read-out: Minimal Inhibitory Concentration
Source text: as §1

[12] = test system: Candida albicans CA 300; details: CA300, read-out: Minimal Inhibitory Concentration
Source text: as §1

[13] = test system: Enterococcus OSU 75-1; details: OSU751, read-out: Minimal Inhibitory Concentration
Source text: as §1

[14] = test system: Staphylococcus aureus LL No. 14; details: LLNO.14, read-out: Minimal Inhibitory Concentration
Source text: as §1

[15] = test system: Escherichia coli 311; details: read-out: Minimal Inhibitory Concentration
Source text: as §1

[16] = test system: Pseudomonas aeruginosa 12-4-4; details: 1244, read-out: Minimal Inhibitory Concentration
Source text: as §1

[17] = test system: Staphylococcus aureus LL No. 45; details: LLNO.45, read-out: Minimal Inhibitory Concentration
Source text: as §1

[18] = test system: Bacillus subtilis ATCC 6633; details: ATCC6633, read-out: Minimal Inhibitory Concentration
Source text: as §1

[19] = test system: Streptococcus faecalis ATCC 29212; details: Enterococcus faecalis, ATCC29212, read-out: Minimal Inhibitory Concentration
Source text: as §1

[20] = test system: Bacillus cereus LL No. 4; details: LLNO.4, read-out: Minimal Inhibitory Concentration
Source text: as §1

[21] = test system: Acinetobacter STFD 79-17; details: STFD7917, read-out: Minimal Inhibitory Concentration
Source text: as §1

[22] = test system: Staphylococcus aureus Smith; details: read-out: Minimal Inhibitory Concentration
Source text: as §1

[23] = test system: Saccharomyces Y 15; details: Y15, read-out: Minimal Inhibitory Concentration
Source text: as §1

[24] = test system: Staphylococcus aureus LL No. 27; details: LLNO.27, read-out: Minimal Inhibitory Concentration
Source text: as §1

[25] = test system: Mycobacterium smegmatis ATCC 607; details: Mycolicibacterium smegmatis, ATCC607, read-out: Minimal Inhibitory Concentration
Source text: as §1

[26] = test system: Streptococcus mutans BHI (b); details: read-out: Minimal Inhibitory Concentration
Source text: as §1

[27] = test system: Klebsiella pneumoniae AD; details: read-out: Minimal Inhibitory Concentration
Source text: as §1

[28] = test system: Enterococcus SM 77-15; details: SM7715, read-out: Minimal Inhibitory Concentration
Source text: as §1

[29] = test system: Pseudomonas aeruginosa ATCC 27853; details: ATCC27853, read-out: Minimal Inhibitory Concentration
Source text: as §1

[30] = test system: Proteus morganii K79-25; details: Morganella morganii, K7925, read-out: Minimal Inhibitory Concentration
Source text: as §1

Structure (SMILES)	MIC [1] [µg/mL]	MIC [2] [µg/mL]	MIC [3] [µg/mL]	MIC [4] [µg/mL]	MIC [5] [µg/mL]	MIC [6] [µg/mL]	MIC [7] [µg/mL]	MIC [8] [µg/mL]	MIC [9] [µg/mL]	MIC [10] [µg/mL]	MIC [11] [µg/mL]	MIC [12] [µg/mL]	MIC [13] [µg/mL]	MIC [14] [µg/mL]	MIC [15] [µg/mL]	MIC [16] [µg/mL]	MIC [17] [µg/mL]	MIC [18] [µg/mL]	MIC [19] [µg/mL]	MIC [20] [µg/mL]	also measured
CC(=O)OCC1=C(C(=O)O)N2C(=O)[C@@H](Nc3nc(-c4ccccc4)cs3)[C@H]2SC1 [Example 3, (6R-trans)-3-[(Acetyloxy)methyl]-8-oxo-7-[(4-phenyl-2-thiazolyl)amino]-5-thia-1-azabicyclo[4.2.0]oct-2-ene-2-carboxylic acid]	8 (≈ 18.5 µM)	1 (≈ 2.32 µM)	> 512	> 512	16 (≈ 37.1 µM)	> 512	8 (≈ 18.5 µM)	> 512	8 (≈ 18.5 µM)	> 512	8 (≈ 18.5 µM)	> 512	256 (≈ 593 µM)	4 (≈ 9.27 µM)	> 512	> 512	4 (≈ 9.27 µM)	8 (≈ 18.5 µM)	256 (≈ 593 µM)	128 (≈ 297 µM)	MIC [21]: > 512 µg/mL; MIC [22]: 8 µg/mL (≈ 18.5 µM); MIC [23]: 256 µg/mL (≈ 593 µM); MIC [24]: 16 µg/mL (≈ 37.1 µM); MIC [25]: 256 µg/mL (≈ 593 µM); MIC [26]: 0.5 µg/mL (≈ 1.16 µM); MIC [27]: > 512 µg/mL; MIC [28]: 256 µg/mL (≈ 593 µM); MIC [29]: > 512 µg/mL; MIC [30]: > 512 µg/mL
CCOC(=O)c1csc(N[C@@H]2C(=O)N3C(C(=O)O)=C(COC(C)=O)CS[C@H]23)n1 [Example 2]	0.5 (≈ 1.17 µM)	4 (≈ 9.36 µM)	> 512	> 512	0.5 (≈ 1.17 µM)	> 512	1 (≈ 2.34 µM)	512 (≈ 1200 µM)	≤ 0.25	> 512	4 (≈ 9.36 µM)	> 512	128 (≈ 299 µM)	1 (≈ 2.34 µM)	512 (≈ 1200 µM)	> 512	1 (≈ 2.34 µM)	4 (≈ 9.36 µM)	128 (≈ 299 µM)	64 (≈ 150 µM)	MIC [21]: > 512 µg/mL; MIC [22]: 1 µg/mL (≈ 2.34 µM); MIC [23]: 128 µg/mL (≈ 299 µM); MIC [24]: 4 µg/mL (≈ 9.36 µM); MIC [25]: 128 µg/mL (≈ 299 µM); MIC [26]: ≤ 0.25 µg/mL; MIC [27]: 512 µg/mL (≈ 1200 µM); MIC [28]: 128 µg/mL (≈ 299 µM); MIC [29]: > 512 µg/mL; MIC [30]: > 512 µg/mL
